# Measurements as given in ChEMBL document CHEMBL5465560, “Selectivity Literature for EUbOPEN Chemogenomic Library” (2024).
# Tests used:
# [1] = target: Serine/threonine-protein kinase pim-2 (Homo sapiens, UniProt Q9P1W9); experiment: Selectivity interaction (KinomeScan (DiscoverX)) EUB0001079a PIM2; conditions: at 1 µM
# [2] = target: T1, Cyclin-dependent kinase 11A (Homo sapiens) (UniProt Q9UQ88); experiment: Selectivity interaction (Kinase panel (KiNativ target engagement assay in Jurkat cells)) EUB0001635a CDK11A; type: cell-based; conditions: Selectivity number of off-targets 0.0, Selectivity number of targets 233.0, Source Knowledge https://www.sciencedirect.com/science/article/pii/S2451945619300674?via%3Dihub, at 1 µM
# T1 sequence (whole entry): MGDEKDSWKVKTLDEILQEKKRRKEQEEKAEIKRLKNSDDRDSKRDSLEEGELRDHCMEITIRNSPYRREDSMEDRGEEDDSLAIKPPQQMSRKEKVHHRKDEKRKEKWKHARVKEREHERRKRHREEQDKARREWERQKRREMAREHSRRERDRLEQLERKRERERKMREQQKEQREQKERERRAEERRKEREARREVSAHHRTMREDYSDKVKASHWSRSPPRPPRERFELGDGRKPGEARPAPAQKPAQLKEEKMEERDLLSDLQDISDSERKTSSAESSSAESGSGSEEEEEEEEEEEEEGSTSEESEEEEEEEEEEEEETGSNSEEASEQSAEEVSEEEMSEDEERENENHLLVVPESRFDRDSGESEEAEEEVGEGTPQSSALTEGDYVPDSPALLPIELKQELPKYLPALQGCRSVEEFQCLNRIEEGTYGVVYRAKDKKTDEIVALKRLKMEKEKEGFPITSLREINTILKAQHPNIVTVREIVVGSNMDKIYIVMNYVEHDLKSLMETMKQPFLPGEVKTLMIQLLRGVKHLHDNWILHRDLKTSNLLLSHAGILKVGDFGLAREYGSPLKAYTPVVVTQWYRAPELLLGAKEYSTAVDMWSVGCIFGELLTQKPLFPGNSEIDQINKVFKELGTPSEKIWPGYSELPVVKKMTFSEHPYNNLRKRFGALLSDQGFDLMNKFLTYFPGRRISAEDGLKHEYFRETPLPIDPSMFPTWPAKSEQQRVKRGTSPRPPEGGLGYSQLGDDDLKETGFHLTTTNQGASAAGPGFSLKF
# [3] = target: T2, Ephrin type-B receptor 6 (Homo sapiens) (UniProt O15197); experiment: Selectivity interaction (KinomeScan (DiscoverX)) EUB0000666a EPHB6; conditions: at 10 µM
# T2 sequence (whole entry): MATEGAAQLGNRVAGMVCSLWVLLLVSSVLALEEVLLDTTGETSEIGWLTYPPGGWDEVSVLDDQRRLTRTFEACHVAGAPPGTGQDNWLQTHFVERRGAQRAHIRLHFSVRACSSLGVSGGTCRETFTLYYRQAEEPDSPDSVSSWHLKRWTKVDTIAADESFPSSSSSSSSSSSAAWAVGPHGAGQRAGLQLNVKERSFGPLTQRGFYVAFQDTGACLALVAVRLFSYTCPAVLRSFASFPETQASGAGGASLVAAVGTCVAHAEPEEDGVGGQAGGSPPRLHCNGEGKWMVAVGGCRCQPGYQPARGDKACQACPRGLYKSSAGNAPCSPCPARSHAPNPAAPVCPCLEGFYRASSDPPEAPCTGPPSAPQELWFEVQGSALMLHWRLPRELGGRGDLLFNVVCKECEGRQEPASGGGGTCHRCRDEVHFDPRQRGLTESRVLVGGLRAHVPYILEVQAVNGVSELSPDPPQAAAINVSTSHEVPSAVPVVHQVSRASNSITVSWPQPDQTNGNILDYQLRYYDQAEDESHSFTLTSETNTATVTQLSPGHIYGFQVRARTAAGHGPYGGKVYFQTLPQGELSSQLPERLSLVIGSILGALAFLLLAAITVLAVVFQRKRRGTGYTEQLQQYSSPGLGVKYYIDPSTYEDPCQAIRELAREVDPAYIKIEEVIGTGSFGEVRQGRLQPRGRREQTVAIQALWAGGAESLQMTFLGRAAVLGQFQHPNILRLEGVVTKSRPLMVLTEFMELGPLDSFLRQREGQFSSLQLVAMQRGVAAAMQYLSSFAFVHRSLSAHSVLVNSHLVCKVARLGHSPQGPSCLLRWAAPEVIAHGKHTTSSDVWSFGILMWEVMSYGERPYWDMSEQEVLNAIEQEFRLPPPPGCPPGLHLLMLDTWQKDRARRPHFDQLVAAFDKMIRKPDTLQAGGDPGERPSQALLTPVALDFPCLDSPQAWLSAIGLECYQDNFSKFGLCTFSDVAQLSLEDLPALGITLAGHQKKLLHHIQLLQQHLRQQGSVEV
# [4] = target: Platelet-derived growth factor receptor alpha (Homo sapiens, UniProt P16234); experiment: Selectivity interaction (Millipore kinase profiler) EUB0000124b PDGFRA; conditions: at 10 µM
# Sequence of Platelet-derived growth factor receptor alpha (P16234 whole entry): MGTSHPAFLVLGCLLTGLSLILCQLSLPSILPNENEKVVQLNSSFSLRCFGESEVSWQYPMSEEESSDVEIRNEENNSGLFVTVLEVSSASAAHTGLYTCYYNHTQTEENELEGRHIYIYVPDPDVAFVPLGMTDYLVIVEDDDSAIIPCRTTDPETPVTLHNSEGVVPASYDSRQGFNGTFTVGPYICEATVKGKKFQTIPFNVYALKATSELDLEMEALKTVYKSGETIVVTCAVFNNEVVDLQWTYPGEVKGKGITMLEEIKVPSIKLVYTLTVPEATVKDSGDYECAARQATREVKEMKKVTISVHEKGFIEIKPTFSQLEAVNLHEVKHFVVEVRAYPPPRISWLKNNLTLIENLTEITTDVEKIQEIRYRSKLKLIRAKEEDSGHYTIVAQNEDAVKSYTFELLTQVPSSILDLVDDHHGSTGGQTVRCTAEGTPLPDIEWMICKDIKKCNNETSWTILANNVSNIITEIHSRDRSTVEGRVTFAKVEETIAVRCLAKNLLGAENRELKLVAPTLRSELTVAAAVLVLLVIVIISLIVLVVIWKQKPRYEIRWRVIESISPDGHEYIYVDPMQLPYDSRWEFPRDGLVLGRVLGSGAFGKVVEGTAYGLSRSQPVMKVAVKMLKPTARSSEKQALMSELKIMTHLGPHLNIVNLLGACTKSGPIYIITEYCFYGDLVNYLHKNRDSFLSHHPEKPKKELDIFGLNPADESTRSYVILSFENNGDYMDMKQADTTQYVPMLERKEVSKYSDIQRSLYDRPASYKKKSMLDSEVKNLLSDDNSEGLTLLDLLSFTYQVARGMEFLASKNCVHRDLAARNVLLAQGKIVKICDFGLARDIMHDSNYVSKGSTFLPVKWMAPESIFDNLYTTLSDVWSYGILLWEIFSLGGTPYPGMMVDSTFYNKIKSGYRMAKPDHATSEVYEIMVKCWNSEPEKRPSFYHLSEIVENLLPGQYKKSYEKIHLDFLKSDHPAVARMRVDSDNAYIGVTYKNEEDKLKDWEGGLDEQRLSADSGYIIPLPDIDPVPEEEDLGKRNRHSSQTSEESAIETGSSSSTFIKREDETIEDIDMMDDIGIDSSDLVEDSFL
# [5] = target: Interferon-induced, double-stranded RNA-activated protein kinase (Homo sapiens) (UniProt P19525); experiment: Selectivity interaction (ActivX KiNativ screen (kinase selectivity in THP-1 cell lysates)) EUB0000639a EIF2AK2; type: subcellular; conditions: lysate, at 1 µM
# Sequence of Interferon-induced, double-stranded RNA-activated protein kinase (Homo sapiens) (P19525 whole entry): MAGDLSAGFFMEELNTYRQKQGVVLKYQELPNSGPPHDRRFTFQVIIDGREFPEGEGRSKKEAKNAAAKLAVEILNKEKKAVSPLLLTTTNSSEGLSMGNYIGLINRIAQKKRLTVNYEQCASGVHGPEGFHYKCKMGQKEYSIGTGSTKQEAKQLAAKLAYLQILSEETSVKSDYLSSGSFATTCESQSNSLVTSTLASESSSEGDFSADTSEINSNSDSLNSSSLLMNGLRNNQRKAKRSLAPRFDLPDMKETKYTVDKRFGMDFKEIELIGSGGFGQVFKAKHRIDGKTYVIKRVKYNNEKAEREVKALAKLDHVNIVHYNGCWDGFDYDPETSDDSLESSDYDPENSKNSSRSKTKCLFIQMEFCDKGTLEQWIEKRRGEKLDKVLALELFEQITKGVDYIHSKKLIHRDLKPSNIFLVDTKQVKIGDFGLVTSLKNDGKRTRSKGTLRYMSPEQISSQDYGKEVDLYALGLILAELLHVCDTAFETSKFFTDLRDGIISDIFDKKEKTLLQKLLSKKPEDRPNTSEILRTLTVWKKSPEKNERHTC
# [6] = target: Dual specificity mitogen-activated protein kinase kinase 2 (Homo sapiens) (UniProt P36507); experiment: Selectivity interaction (SelectScreen profiling (Invitrogen)) EUB0000607a MAP2K2; conditions: at 2 µM
# Sequence of Dual specificity mitogen-activated protein kinase kinase 2 (Homo sapiens) (P36507 whole entry): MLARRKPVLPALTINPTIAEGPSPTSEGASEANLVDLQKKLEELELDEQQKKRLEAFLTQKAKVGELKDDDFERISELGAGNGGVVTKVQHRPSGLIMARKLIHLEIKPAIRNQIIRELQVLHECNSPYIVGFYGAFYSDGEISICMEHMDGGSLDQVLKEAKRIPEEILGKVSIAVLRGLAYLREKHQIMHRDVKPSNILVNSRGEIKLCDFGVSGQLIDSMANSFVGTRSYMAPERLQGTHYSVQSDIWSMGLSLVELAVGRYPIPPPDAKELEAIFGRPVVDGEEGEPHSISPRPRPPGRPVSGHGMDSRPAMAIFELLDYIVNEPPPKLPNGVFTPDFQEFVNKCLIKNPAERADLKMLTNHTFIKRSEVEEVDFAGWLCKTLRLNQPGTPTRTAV
# [7] = target: T3, Dual specificity tyrosine-phosphorylation-regulated kinase 2 (Homo sapiens) (UniProt Q92630); experiment: Selectivity interaction (Kinase panel (literature)) EUB0001199aCl DYRK2; conditions: at 1 µM
# T3 sequence (whole entry): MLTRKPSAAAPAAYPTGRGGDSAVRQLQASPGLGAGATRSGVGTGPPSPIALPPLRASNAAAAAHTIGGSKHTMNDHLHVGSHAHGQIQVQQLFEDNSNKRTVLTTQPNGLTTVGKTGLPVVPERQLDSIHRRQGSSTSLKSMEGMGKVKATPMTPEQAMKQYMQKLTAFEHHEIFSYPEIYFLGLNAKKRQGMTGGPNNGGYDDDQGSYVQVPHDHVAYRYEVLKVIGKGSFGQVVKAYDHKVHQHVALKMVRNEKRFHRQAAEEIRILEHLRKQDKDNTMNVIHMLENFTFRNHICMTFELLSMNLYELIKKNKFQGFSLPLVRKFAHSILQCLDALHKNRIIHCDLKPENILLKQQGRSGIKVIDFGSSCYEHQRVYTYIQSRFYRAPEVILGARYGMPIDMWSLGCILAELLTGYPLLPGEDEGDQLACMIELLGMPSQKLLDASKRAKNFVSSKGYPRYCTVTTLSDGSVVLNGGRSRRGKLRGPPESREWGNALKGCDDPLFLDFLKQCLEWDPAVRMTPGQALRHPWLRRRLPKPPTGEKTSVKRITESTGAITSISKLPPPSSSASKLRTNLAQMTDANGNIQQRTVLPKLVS
# Sequence of Serine/threonine-protein kinase pim-2 (Q9P1W9 whole entry, looked up): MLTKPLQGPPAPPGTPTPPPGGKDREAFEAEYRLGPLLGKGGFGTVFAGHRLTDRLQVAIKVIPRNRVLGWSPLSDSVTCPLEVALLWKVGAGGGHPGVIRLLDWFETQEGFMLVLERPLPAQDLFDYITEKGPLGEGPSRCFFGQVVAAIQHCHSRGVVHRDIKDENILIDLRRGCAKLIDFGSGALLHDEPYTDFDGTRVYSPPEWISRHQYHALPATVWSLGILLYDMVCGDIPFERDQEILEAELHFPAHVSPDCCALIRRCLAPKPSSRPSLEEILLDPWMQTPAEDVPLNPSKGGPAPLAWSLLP
compound,measurement,setting,value
Nc1cnc(N2CCc3cc(S(=O)(=O)Nc4c(F)cc(Cl)cc4F)cc(N4CCCC4=O)c32)nc1 [TP-020n],% of control,[1],85%
C=CC(=O)Nc1ccc(C(=O)Nc2[nH]nc3c2CN(C(=O)N[C@H](CN(C)C)c2ccccc2)C3(C)C)cc1,% of engagement,[2],-0.8%
O=C(NOC[C@H](O)CO)c1ccc(F)c(F)c1Nc1ccc(I)cc1F,% of control,[3],87%
CC(=O)Nc1cccc(-n2c(=O)n(C3CC3)c(=O)c3c(Nc4ccc(I)cc4F)n(C)c(=O)c(C)c32)c1,% of control,[4],111%
CC[C@@H]1[C@H](F)C(=O)N[C@@H]1COc1nccc2cc(C(N)=O)c(OC)cc12 [ZIMLOVISERTIB],% of inhibition,[5],-3.7%
CNC(=O)Nc1ccc(-c2nc(N3CC4CCC(C3)O4)c3cnn(C4CCC5(CC4)OCCO5)c3n2)cc1,% of inhibition,[6],2%
CN1Cc2nccc(-c3cn(C)nc3-c3ccc(F)cc3)c2C1=O,% of inhibition,[7],13%
